Test results reported in patent US9902986B2, “Enterobactin conjugates and uses thereof” (Massachusetts Institute of Technology, priority 2013, dated 2018).

Test system: E. coli ATCC 33475 (ent-)
Assay type: cell-based, Escherichia coli
Description: General microbiology methods are as described herein or according to processes known in the art. […] Bacterial growth was assayed by measuring OD600 using a BioTek Synergy HT plate reader. Each well condition was prepared in duplicate and three independent replicates of each assay were conducted on different days. The resulting mean OD600 are reported and the error bars are the standard deviation of the mean obtained from the three independent replicates.
Three non-pathogenic E. coli strains were employed that are defective in enterobactin synthesis, enterobactin transport, or ferric enterobactin utilization in growth recovery assays. E. coli ATCC 33475 (ent-) cannot biosynthesize enterobactin, but retains the capacity to import and metabolize the siderophore.^71 E. coli H1187 (fepA-) lacks the outer membrane enterobactin receptor. E. coli K-12 JW0576 (fes-) can accumulate ferric enterobactin, but cannot release the iron because it is deficient in the enterobactin esterase Fes. As a result of these defects in iron metabolism, all three strains grow poorly under conditions of iron limitation.^71 The iron chelator 2,2′-dipyridyl (dipyridyl, DP) was used to generate iron-deficient conditions and promote expression of siderophore transport machinery in the growth recovery assays.

O=C(NCCOCCOCCOCCNC(=O)c1cc2cc3c4c(c2oc1=O)CCCN4CCC3)c1cc(O)c(O)c(C(=O)N[C@H]2COC(=O)[C@@H](NC(=O)c3cccc(O)c3O)COC(=O)[C@@H](NC(=O)c3cccc(O)c3O)COC2=O)c1 [conjugate 34, N^3-((3S,7S,11S)-7,11-Bis(2,3-dihydroxybenzamido)-2,6,10-trioxo-1,5,9-trioxacyclododecan-3-yl)-4,5-dihydroxy-N^1-(1-oxo-1-(11-oxo-2,3,5,6,7,1-hexahydro-1H-pyrano[2,3-f]pyrido[3,2,1-ij]quinolin-10-yl)-5,8,11-trioxa-2-azatridecan-13-yl)isophthalamide]
toxicity to E. coli (under iron limitation): no toxicity

O=C(NCCOCCOCCOCCC(=O)N1CCN(c2cc3c(cc2F)c(=O)c(C(=O)O)cn3C2CC2)CC1)c1cc(O)c(O)c(C(=O)N[C@H]2COC(=O)[C@@H](NC(=O)c3cccc(O)c3O)COC(=O)[C@@H](NC(=O)c3cccc(O)c3O)COC2=O)c1 [conjugate 35, 7-(4-(1-(3-(((3S,7S,11S)-7,11-Bis(2,3-dihydroxybenzamido)-2,6,10-trioxo-1,5,9-trioxacyclododecan-3-yl)carbamoyl)-4,5-dihydroxyphenyl)-1-oxo-5,8,11-trioxa-2-azatetradecan-14-oyl)piperazin-1-yl)-1-cyclopropyl-6-fluoro-4-oxo-1,4-dihydroquinoline-3-carboxylic acid]
effect on E. coli growth in the absence of DP: concentration-dependent inhibition of E. coli growth

O=C(NCCCCCC(=O)N1CCN(c2cc3c(cc2F)c(=O)c(C(=O)O)cn3C2CC2)CC1)c1cc(O)c(O)c(C(=O)N[C@H]2COC(=O)[C@@H](NC(=O)c3cccc(O)c3O)COC(=O)[C@@H](NC(=O)c3cccc(O)c3O)COC2=O)c1 [conjugate 40, 7-(4-(6-(3-(((3S,7S,11S)-7,11-Bis(2,3-dihydroxybenzamido)-2,6,10-trioxo-1,5,9-trioxacyclododecan-3-yl)carbamoyl)-4,5-dihydroxybenzamido)hexanoyl)piperazin-yl)-1-cyclopropyl-6-fluoro-4-oxo-1,4-dihydroquinoline-3-carboxylic acid]
effect on E. coli growth in the absence of DP: concentration-dependent inhibition of E. coli growth

CN[C@H](CC(C)C)C(=O)N[C@H]1C(=O)N[C@@H](CC(N)=O)C(=O)N[C@H]2C(=O)N[C@H]3C(=O)N[C@H](C(=O)N[C@H](C(=O)O)c4cc(O)cc(O)c4-c4cc3ccc4O)[C@H](O)c3ccc(c(Cl)c3)Oc3cc2cc(c3O[C@@H]2OC(CO)[C@@H](O)C(O)C2O[C@H]2CC(C)(N)[C@H](O)C(C)O2)Oc2ccc(cc2Cl)[C@H]1O (stereo partly shown) [vancomycin, reference compound]
activity against E. coli (over the concentration range employed): inactive against E. coli
